In ChEMBL document CHEMBL6115051, “Design of Novel Mercapto-3-phenylpropanoyl Dipeptides as Dual Angiotensin-Converting Enzyme C-Domain-Selective/Neprilysin Inhibitors” (J Med Chem, 2025):

Assays:
[1] = molecular target: T1, Angiotensin-converting enzyme (Homo sapiens, UniProt P12821); assay: Inhibition of human glycosylated C-terminal catalytic ACE domain using Cbz-Phe-His-Leu substrate by fluorogenic end point activity assay
Neprilysin = Neprilysin (Homo sapiens, UniProt P08473); assay: Inhibition of human NEP ectodomain using MCA-RPPGFSAFK-(Dnp)-OH peptide as substrate by continuous activity assay
Sequence of Neprilysin (P08473 whole entry, the tested form may be a part): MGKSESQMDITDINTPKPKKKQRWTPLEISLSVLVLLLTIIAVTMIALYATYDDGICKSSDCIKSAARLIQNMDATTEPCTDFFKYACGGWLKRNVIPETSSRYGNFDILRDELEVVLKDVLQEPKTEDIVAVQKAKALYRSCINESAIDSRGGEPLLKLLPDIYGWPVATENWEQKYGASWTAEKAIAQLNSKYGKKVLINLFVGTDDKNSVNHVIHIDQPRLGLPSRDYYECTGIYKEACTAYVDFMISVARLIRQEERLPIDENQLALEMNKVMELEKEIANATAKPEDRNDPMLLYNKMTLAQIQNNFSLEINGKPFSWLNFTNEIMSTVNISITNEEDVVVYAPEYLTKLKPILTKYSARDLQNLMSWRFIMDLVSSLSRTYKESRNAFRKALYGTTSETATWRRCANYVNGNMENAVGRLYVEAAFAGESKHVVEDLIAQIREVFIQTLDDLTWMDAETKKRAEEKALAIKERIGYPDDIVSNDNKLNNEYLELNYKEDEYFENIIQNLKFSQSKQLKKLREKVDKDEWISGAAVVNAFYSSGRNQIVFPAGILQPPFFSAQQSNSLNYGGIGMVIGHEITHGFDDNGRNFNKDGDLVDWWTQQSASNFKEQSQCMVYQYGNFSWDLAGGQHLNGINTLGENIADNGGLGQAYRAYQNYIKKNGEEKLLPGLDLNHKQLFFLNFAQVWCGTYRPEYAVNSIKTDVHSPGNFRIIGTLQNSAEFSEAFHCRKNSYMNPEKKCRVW

Homo sapiens = species: Homo sapiens; assay: Selectivity factor, ratio of IC50 for human glycosylated nACE to IC50 for human glycosylated cACE
[2] = molecular target: T1, Angiotensin-converting enzyme; assay: Inhibition of human glycosylated N-terminal catalytic ACE domain using Cbz-Phe-His-Leu substrate by fluorogenic end point activity assay

T1 sequence (P12821 whole entry, the tested form may be a part): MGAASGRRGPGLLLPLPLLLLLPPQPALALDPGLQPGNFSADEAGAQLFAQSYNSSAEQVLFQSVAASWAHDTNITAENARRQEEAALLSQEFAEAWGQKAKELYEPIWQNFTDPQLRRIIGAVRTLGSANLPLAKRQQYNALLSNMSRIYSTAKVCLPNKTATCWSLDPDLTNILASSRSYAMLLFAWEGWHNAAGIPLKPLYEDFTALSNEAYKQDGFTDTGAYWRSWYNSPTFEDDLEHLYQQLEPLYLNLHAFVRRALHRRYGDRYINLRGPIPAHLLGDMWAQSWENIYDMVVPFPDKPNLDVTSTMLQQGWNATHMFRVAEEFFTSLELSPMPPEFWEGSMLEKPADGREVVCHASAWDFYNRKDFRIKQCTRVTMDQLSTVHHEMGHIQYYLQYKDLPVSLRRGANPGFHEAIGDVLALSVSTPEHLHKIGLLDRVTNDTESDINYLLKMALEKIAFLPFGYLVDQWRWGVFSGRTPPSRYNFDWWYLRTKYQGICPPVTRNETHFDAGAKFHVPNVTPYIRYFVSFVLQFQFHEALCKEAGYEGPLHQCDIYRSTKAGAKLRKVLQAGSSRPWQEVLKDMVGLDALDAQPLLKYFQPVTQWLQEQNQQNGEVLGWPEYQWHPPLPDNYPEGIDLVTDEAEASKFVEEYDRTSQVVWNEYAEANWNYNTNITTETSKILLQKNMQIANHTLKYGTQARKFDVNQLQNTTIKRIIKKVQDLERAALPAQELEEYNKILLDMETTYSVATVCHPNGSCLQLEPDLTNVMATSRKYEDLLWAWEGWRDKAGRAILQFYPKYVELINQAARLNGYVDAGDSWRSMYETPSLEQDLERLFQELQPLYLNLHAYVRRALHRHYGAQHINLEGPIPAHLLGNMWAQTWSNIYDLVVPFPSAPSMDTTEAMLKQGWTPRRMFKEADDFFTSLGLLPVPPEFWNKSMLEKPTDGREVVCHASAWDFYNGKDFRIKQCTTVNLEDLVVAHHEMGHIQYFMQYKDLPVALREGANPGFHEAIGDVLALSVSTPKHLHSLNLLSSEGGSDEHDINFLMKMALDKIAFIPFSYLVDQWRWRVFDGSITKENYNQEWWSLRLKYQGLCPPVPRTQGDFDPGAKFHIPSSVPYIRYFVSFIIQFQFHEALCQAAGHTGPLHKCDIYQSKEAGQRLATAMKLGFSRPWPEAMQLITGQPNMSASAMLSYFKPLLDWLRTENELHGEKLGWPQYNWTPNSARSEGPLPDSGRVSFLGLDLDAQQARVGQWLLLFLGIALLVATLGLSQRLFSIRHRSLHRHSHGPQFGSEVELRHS

| SMILES | IC50 [1] [µM] | IC50 (Neprilysin) [µM] | Ratio IC50 (Homo sapiens) | IC50 [2] [µM] |
| --- | --- | --- | --- | --- |
| O=C(NCC(=O)N1[C@@H](c2cccc(O)c2)CC[C@H]1C(=O)O)[C@@H](S)Cc1ccc(O)cc1 | 0.009 | – | – | – |
| NCCCC[C@H](NC(=O)[C@@H](S)Cc1ccccc1)C(=O)N[C@@H](Cc1c[nH]c2ccccc12)C(=O)O | 0.007 | – | – | – |
| NCCCC[C@H](N[C@@H](CCc1ccccc1)C(=O)O)C(=O)N[C@@H](Cc1c[nH]c2ccccc12)C(=O)O | 0.08 | > 250 | 39 | 3.1 |
| Cc1ccc([C@H]2CC[C@@H](C(=O)O)N2C(=O)CN[C@@H](CCc2ccccc2)C(=O)O)cc1 | 4.1 | > 100 | 1.5 | 6 |
